Laboratory results published in patent US9115385B2, “Methods and compositions for topoisomerase I modulated tumor suppression” (RG BIOPHARMA, LLC, priority 2006, dated 2015).
Values belong to the molecule of their own block, whether it stands above or below them.

Assays:
topoisomerase I [1] = test: topoisomerase I plasmid relaxation assay with nuclear extracts of treated cells; format: cell-based, human; settings: H358 cells, 72 hours after treatment, 0.75 μg lysate per reaction
H358 cells = test: cell viability assay with camptothecin, H358; format: cell-based, human
Method: (§1) Control cells received no pretreatment. […] CK2 activator treatment was for the duration of the assay. Cell viability was scored 3 days post-start of camptothecin treatment.
(§2) Viability assays were performed 24 hours post-vector treatment by exposing cells for 24 hours to increasing doses of camptothecin (a topoisomerase I inhibitor) in triplicate in a 96-well viability assay, and assaying them for viability 5 days post-start of vector treatment (FIG. 5B). For each growth curve, cell viabilities were normalized to the viability of cells treated with vector only (no camptothecin), to enable a direct visualization of the sensitization effect.
(§3) Studies of a large panel of cell lines have shown that cell lines with overexpressed CK2 (FIGS. 11B1-B3 and 11C1-C3) display hyper serine phosphorylation of topo I (FIG. 11D) that correlates with sensitivity to camptothecin (FIG. 11A). […] Triplicate wells were then treated with the indicated doses of camptothecin for 18 hours, and monitored for viability 3 days post-start of treatment. […] Referring to FIGS. 11B1-B3, PKC (B1), cdk1 (B2), and CK2 (B3) levels in cancer cell lines: Cell lysates were prepared from the indicated cancer cell lines and assayed for enzymatic activities, or evaluated by Western analysis for total PKC, cdk1, or CK2 protein levels. […] Numbers below Western blot are digital readings of ser-P band intensities relative to H358.

[2] = tested on: topo I phosphoserine 506 epitope; test: Western of phosphoserine 506 epitope of topo I in treated cells; format: cell-based, human; settings: H358 cells treated as in FIG. 13A
PKC = settings: cited from earlier work
cdk1 = cdk1 (Homo sapiens, UniProt P06493); settings: cited from earlier work
Chain of cdk1 (P06493 whole entry, species assumed): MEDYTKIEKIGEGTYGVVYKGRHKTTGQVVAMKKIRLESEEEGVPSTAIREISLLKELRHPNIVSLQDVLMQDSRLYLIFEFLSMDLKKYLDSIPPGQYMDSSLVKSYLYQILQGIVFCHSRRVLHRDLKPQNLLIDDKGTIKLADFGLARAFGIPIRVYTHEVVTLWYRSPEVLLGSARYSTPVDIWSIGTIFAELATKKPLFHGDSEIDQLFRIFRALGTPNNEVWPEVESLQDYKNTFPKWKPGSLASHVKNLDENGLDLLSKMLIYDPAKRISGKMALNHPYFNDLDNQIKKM
Chain of cdk1 (P14635 whole entry partner, species assumed): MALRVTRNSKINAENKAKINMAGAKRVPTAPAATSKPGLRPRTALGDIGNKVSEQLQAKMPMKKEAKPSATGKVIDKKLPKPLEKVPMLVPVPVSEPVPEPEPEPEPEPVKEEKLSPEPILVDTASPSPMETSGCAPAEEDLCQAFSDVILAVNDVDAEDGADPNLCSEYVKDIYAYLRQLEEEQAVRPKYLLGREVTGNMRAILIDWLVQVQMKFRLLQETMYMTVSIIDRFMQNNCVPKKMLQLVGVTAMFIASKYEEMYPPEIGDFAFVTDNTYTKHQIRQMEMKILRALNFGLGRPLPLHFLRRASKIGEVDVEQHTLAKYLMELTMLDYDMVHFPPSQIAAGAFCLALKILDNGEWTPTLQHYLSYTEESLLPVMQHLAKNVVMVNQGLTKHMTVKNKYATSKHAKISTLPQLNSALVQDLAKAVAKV

[3] = tested on: topo I serine phosphorylation; test: topo I immunoprecipitation followed by phosphoserine Western in treated cells; settings: H358 cells, digital quantitation of band intensities
H23 cells = test: cell viability assay with camptothecin, H23; format: cell-based, human
Method: as §1, §2
Studies of a large panel of cell lines have shown that cell lines with overexpressed CK2 (FIGS. 11B1-B3 and 11C1-C3) display hyper serine phosphorylation of topo I (FIG. 11D) that correlates with sensitivity to camptothecin (FIG. 11A). […] Cells were plated at 2000 cells per well and allowed to attach. Triplicate wells were then treated with the indicated doses of camptothecin for 18 hours, and monitored for viability 3 days post-start of treatment. Viability is represented as a % of control, untreated, cell viability. Referring to FIGS. 11B1-B3, PKC (B1), cdk1 (B2), and CK2 (B3) levels in cancer cell lines: Cell lysates were prepared from the indicated cancer cell lines and assayed for enzymatic activities, or evaluated by Western analysis for total PKC, cdk1, or CK2 protein levels. Actin levels served as a control (same control for PKC, cdk1, and CK2). Referring to FIGS. 11C1-C3 PKC (C1), cdk1 (C2), and CK2 (C3) levels in normal cell lines, compared to H358 and H23: Cell lysates were prepared from the indicated cell lines and evaluated as before. Numbers below Western blots indicate digital reading of band intensities of PCK, cdk1, or CK2 Western blots, relative to H358. Referring to FIG. 11D, topo-I immunoprecipitation followed by topo-I Western (top row) or phosphoserine Western (bottom row). Numbers below Western blot are digital readings of ser-P band intensities relative to H358.

HT29 cells = test: cell viability assay with camptothecin, HT29; format: cell-based, human; settings: viability 3 days after treatment
Description: FIG. 7 is a series of graphs showing the correlation of serine phosphorylation, ARF/topoisomerase I complex formation and camptothecin sensitivity. FIGS. 7A-C show the relative amounts of (A) serine phosphorylation of topoisomerase I, (B) total topoisomerase I, and (C) ARF-topoisomerase I complex following topoisomerase I immunoprecipitation in the indicated cell types. FIG. 7D is a graph showing the viability of the indicated cell types 3 days after treatment with camptothecin.
as §3, with “Referring” for “Numbers below Western blot are digital readings of ser-P band intensities relative”, “FIGS. 11C1-C3 PKC (C1), cdk1 (C2), and CK2 (C3) levels in normal cell lines, compared to H358 and H23: Cell lysates were prepared from the indicated cell lines and evaluated as before. […]” for “H358.”

Hela cells = test: cell viability assay with camptothecin, Hela; format: cell-based; settings: compared with H23 and H358
Description: FIG. 8A is a graph showing the viability of the indicated cell types 3 days after treatment with camptothecin. FIG. 8B is an electrophoretic gel of a topoisomerase I immunoprecipitation followed by an ARF and topoisomerase I Western analysis. FIG. 8C is an electrophoretic gel of a topoisomerase I immunoprecipitation and a phosphoserine Western analysis. FIG. 8D is an ARF Western analysis. […] The sensitivity of Hela cells to topoisomerase I inhibitors is also intermediate to that of […] and H23 cells.
The assay in FIG. 8A was carried out as in FIG. 7D. ARF/topoisomerase I complex formation was examined using the co-immunoprecipitation assay described for FIGS. 3A and 3C. A reduced but detectable level of ARF/topoisomerase I complex formation in Hela cells was observed, compared to H358 cells (FIG. 8B). ARF/topoisomerase I complex formation in H23 cells was undetectable (FIG. 8B), confirming previous experiments (FIG. 1C).

topoisomerase I [4] = molecular target: T1, topoisomerase I (Homo sapiens, UniProt P11387); test: topoisomerase I plasmid relaxation assay, agent added to nuclear extracts in vitro; format: biochemical; settings: for effect on H358 topoisomerase activity: 3, 9, 27 ng added to 0.06 μg H358 extract; for effect on H23 topoisomerase activity: 3, 9, 27 ng added to 0.6 μg H23 extract
T1 construct: endogenous in cells; host or cells: H358 and H23 cells
T1 sequence (P11387 2-765 limits assumed): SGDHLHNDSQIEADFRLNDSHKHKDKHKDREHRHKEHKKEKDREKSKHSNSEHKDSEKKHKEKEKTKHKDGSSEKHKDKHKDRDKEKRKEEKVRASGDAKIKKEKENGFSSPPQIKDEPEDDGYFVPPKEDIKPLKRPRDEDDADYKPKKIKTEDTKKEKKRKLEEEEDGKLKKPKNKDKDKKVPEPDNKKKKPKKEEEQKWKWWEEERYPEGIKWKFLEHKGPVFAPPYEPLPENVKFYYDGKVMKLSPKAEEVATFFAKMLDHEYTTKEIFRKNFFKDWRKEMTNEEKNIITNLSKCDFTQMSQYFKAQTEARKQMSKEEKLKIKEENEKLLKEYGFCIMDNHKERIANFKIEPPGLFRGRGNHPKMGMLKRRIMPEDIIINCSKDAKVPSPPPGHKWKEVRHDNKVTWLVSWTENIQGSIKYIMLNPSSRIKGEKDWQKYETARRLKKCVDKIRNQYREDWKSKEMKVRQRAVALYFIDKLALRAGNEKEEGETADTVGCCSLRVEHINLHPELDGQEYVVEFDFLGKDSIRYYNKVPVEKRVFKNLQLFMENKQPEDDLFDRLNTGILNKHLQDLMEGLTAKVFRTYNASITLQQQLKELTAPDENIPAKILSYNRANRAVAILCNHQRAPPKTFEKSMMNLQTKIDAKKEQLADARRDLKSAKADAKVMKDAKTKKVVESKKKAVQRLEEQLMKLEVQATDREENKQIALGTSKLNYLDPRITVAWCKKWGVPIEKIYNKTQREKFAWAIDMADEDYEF
Method: Similar assays were carried out using the amount of each respective nuclear extract that produced a 50% conversion of supercoiled to relaxed form (0.06 and 0.6 μg extract protein per reaction for H358 and H23, respectively), and added increasing amounts of purified thioredoxin-ARF (3, 9, 27 ng).
Topoisomerase I Assays: Assays were carried out using the Topoisomerase I Assay Kit (Topogen, Florida), according to the instructions provided with the kit and using the high salt nuclear extracts prepared as described above. Briefly, 0.125 μg supercoiled plasmid DNA was incubated with 0-1.3 μg of nuclear extract for 30 minutes at 37° C. The reaction was stopped by adding stop loading dye supplied in the kit and electrophoresed on a 1% agarose/TAE (10 mM TRIS-acetate/1 mM EDTA) gel until the dye front had reached the bottom of the gel. The gel was then stained for 20 minutes in 0.5 μg/mL ethidium bromide, destained in deionized water for 30 minutes, and electrophoresed for an additional hour to enhance band visibility. The gel was photographed and band intensities were analyzed digitally using a Kodak digital camera and analysis software. Some assays were carried out with alkaline phosphatase-treated extracts, prepared as described below, or in the presence of ARF or ARF1β thioredoxin fusion proteins (3, 9, 27 ng), prepared as described above (see pull-down assays).

topoisomerase I [5] = molecular target: T1, topoisomerase I; test: phosphoserine Western of topoisomerase I after in vitro enzyme treatment; format: biochemical
Description: (§4) The dephosphorylated topoisomerase I from H358 cells could no longer be activated by addition of increasing amounts of ARF fusion protein (FIG. 3B, lanes 7-9).

[6] = tested on: ARF/topoisomerase I complex; test: ARF binding / co-immunoprecipitation of topoisomerase I after in vitro enzyme treatment; parameters: species or system human
Description: as §4

ARF = test: Western analysis of ARF protein levels in treated H358 cells; format: cell-based, human; settings: 72 hours post-siRNA
Description: FIG. 5B is a series of graphs showing H358 and PC-3 cell viabilities assayed 5 days post-vector treatment (adenoviral vector, moi 20 pfu/cell, or siRNA), and 4 days post treatment with increasing doses of camptothecin. Viability is expressed as a percent of no-camptothecin control for each vector or siRNA treatment. Results represent average of triplicate wells, with standard deviations indicated. Treatments: Adp14 (ARF full length ▪); Ad1β (ARF N-term ◯); siRNA control (▾); no vector (●); siRNA exon 2 (∇). […] Digital analyses of ARF levels are shown below ARF lanes. (lower panel) H358 cell viability assay following the indicated treatments. Viability was measured 3 days post-start of camptothecin treatment.
Adenoviral vectors were used to achieve ectopic overexpression of full-length ARF (Adp14) or ARF-N-terminal domain (Ad1β), and RNA interference to down-regulate endogenous expression of ARF. As shown by the Western analysis of H358 cells in FIG. 5A, ARF levels increased by some 3-fold, as determined by digital analysis of band intensities, by 48 hours post-treatment with Adp14 (moi, 20 pfu/cell, FIG. 5A, lane 1), relative to Ad1β-treated cells (FIG. 5A, lane 2) or untreated cells (FIG. 5A, lane 4). […]

[7] = purified recombinant human topoisomerase I

Molecule: Brc1c(Br)c(Br)c2[nH]nnc2c1Br [TBB, 4,5,6,7-tetrabromobenzotriazole]
conversion of supercoiled plasmid to relaxed form by nuclear extract (topoisomerase I [1]): essentially none is converted | change of cellular response to camptothecin (H358 cells; pretreatment then camptothecin 18 hours, 3-day viability): more resistant to camptothecin | cellular levels of the phosphoserine 506 epitope [2]: suppresses cellular levels of the phosphoserine epitope | effect on PKC (PKC): minimal effects | effect on cdk1 (cdk1): minimal effects | topo I serine phosphorylation, % of untreated H358 cells [3]: about 10%

Molecule: CC[C@@]1(O)C(=O)OCc2c1cc1n(c2=O)Cc2cc3ccccc3nc2-1 [camptothecin]
response to camptothecin (H23 cells): greatly reduced response | sensitivity to camptothecin compared with H358 and PC-3 (H23 cells; viability 3 days after treatment): more resistant | sensitivity to camptothecin compared with H358 and PC-3 (HT29 cells): more resistant | sensitivity to camptothecin (Hela cells): intermediate to that of H23 and H358

Molecule: Thioredoxin-ARF: purified recombinant human ARF-thioredoxin fusion protein, full length
effect on H358 topoisomerase activity (topoisomerase I [4]): enhanced the activity of H358 topoisomerase in a dose-dependent manner | effect on H23 topoisomerase activity (topoisomerase I [4]): no effect

topoisomerase I activity in vitro (topoisomerase I [4]; H358 and H23 nuclear extracts treated with the enzyme): abolished their topoisomerase I activity | topoisomerase I serine phosphorylation (topoisomerase I [5]; H358 and H23 nuclear extracts): eliminated serine phosphorylation | serine phosphorylation of purified recombinant human topoisomerase I (topoisomerase I [5]; [7]): abolished serine phosphorylation | co-immunoprecipitation of topoisomerase I with ARF / complex formation ([6]; nuclear extracts): failed to co-immunoprecipitate
Molecule: alkaline phosphatase
binding of recombinant ARF fusion protein by purified recombinant human topoisomerase I [6, 7]: abolished its ability to bind recombinant ARF fusion protein

Molecule: siRNA to exon 1β: siRNA to the exon 1β region of ARF (SEQ ID NO: 4 and 5) (chain 1 GGGUUUUCGUGGUUCACAUTT; chain 2 AUGUGAACCACGAAAACCCTC; chemistry not given here)
sensitivity to camptothecin after exon 1β siRNA with or without Adp14 (H358 cells; viability 5 days post-start of vector treatment): decreased sensitivity to camptothecin | ARF protein level relative to untreated cells (ARF): about 0.25

B1: thioredoxin ARF-N-terminus: thioredoxin fusion of the N-terminal 64 amino acid residues of ARF, does not bind topoisomerase I (protein, UniProt Q8N726 1-64, looked up, fragment)
chain: MVRRFLVTLRIRRACGPPRVRVFVVHIPRLTGEWAAPGAPAAVALVLMLLRSQRLGQQPLPRRP
modifications: thioredoxin fusion
effect on H358 topoisomerase activity (topoisomerase I [4]): Neither H358 not H23 topoisomerase activities responded | effect on H23 topoisomerase activity (topoisomerase I [4]): Neither H358 not H23 topoisomerase activities responded
